The source of these data is paper PMC8207694, “Nucleoside transporter-guided cytarabine-conjugated liposomes for intracellular methotrexate delivery and cooperative choriocarcinoma therapy” (Journal of Nanobiotechnology, 2021).

One test relates to JEG-3 cells. The test can be described thus: Cell structure damage (bio-TEM). The format is cell-based, human. Conditions: 1 μg/mL MTX-equivalent, 24 h. The method, then:
Bio-TEM was applied for observing the cell structure and mitochondrial damage effect induced by MTX formulations. Briefly, JEG-3 cells were seeded in a 6 cm dish. After culturing for 24 h, the cells were treated with free MTX, MTX + Cy-lipid, Lipo@MTX, or Cy-Lipo@MTX at an equivalent MTX concentration (1 μg/mL) for another 24 h. Then, cells were digested, centrifuged, and fixed with 2.5% glutaraldehyde solution at 4 °C for more than 4 h. Finally, the bio-TEM observation was performed after sample preparation.

Test [1] relates to JEG-3 tumor models. The test can be described thus: Survival of large tumor-bearing mice (Kaplan-Meier). Conditions: mice bearing larger tumors 300-500 mm^3; saline 26 days. The format is in vivo. Here is the method:
(§1) When tumors were 50–100 mm^3 in size, nude mice were intravenously administrated with saline or MTX formulations (free MTX, MTX + Cy-lipid, Lipo@MTX, or Cy-Lipo@MTX, 5 mg MTX-equivalent/kg body weight, each group contained 6 mice) on day 6, 9, 12, 14, 18, and 21. On the 24th day, the mice were sacrificed, and the tumors, as well as the main organs, were excised, weighed, washed three times using saline, and subjected to fixation with 10% neutral buffered formalin. The tumor tissues were collected for H&E, TUNEL, and Ki67 staining. […] The survival of large tumor-bearing mice (300–500 mm^3 in size) was analyzed via Kaplan–Meier analysis (each group contained 5 mice).

Test [2] deals with JEG-3 tumor models. The test can be described thus: In vivo antitumor study. The arrangement: species or system BALB/c nude mice. Here is the method: as §1

As to `CN(Cc1cnc2nc(N)nc(N)c2n1)c1ccc(C(=O)N[C@@H](CCC(=O)O)C(=O)O)cc1` [free MTX, Methotrexate], the “cell structure and mitochondria (bio-TEM)” value in the test with JEG-3 cells is “cell structure was intact and the cell boundary was clearly visible”. The compound further showed a median survival time in the test with JEG-3 tumor models [1] of 28 days. For the same compound, in the test with JEG-3 tumor models [2] (day 24, 5 mg MTX-equivalent/kg i.v., six treatments, saline 2211.35 ± 236.66), the tumor volume stood at 1210.14 ± 285.62 mm^3. Further, the tumor weight in the test with JEG-3 tumor models [2] (end of treatment cycle (day 24), saline 3.24 ± 0.60) is reported as 2.35 ± 0.32 g.
